We go through 5 molecules from patent publication US5334723A, “2-piperidinecarboxylic acid derivative, oncogene suppressor and agent for obtaining revertants” (Meiji Seika Kaisha, Ltd., priority 1991, dated 1994).

Broadly, the IC50 is the concentration at which inhibition is half-maximal. A higher IC50 goes with weaker potency.

The structures appear in SMILES notation. In brackets after ≈: the same amount, converted by molar mass.

The test system of series [1] is P388 cells (mouse leukemia). The experiment in a line: Antitumor effect on mouse tumor cells (MTT assay), P388. The series is classed as cell-based. Particulars: 72 h, 3-day incubation. As to the method: (§1) The P388 and L1210 cells are derived from mouse leukemia. The MethA cells, the 3LL cells and the B16 cells are derived from solid cancer, Lewis lung cancer and melanoma, respectively.
(§2) The cells subcultured in a CO2 incubator were each suspended in an RPM1 medium or Dulbecco's modified MEM medium, supplemented with 10%(v/v) fetal serum so as to give a cell density of 5×10^4 cells/mi. To a 135 μl portion of the suspension was added each test compound shown in Table 1 followed by 3-day incubation in a CO2 incubator. After the incubation was completed, 50% inhibition concentration (IC50) was determined by the MTT assay (Igaku no Ayumi, 128, 733 (1984)).
On the technique in general: Tetrazolium assays rely on reduction of a dye to a coloured formazan, in cell work by metabolically active cells.

The test system of series [2] is L1210 cells (mouse leukemia). The experiment in a line: Antitumor effect on mouse tumor cells (MTT assay), L1210. The class given is cell-based. Particulars: 72 h, 3-day incubation. As to the method:
as §1, §2

In series [3] the test system is HL60 cells (human leukemia). Nature of the series: Antitumor effect on human tumor cells (MTT assay), HL60. The class given is cell-based. The note with it: HL-60, same manner as Test Example 1. As to the method: as §2
(§3) The antitumor effects of the compounds of the present invention were evaluated in the same manner as in Test Example 1 except that various human tumor cells were employed. The HL60 cells, the CCRF-CCM cells and the QG5 cells are derived from human leukemia, human T cells and human lung cancer, respectively.

Series [4] relates to MethA cells (solid cancer). The experiment in a line: Antitumor effect on mouse tumor cells (MTT assay), MethA. Particulars: Meth-A, 72 h, 3-day incubation. The class given is cell-based. As to the method:
as §1, §2

Series [5] deals with 3LL cells (Lewis lung cancer). The experiment in a line: Antitumor effect on mouse tumor cells (MTT assay), 3LL. The note with it: 72 h, 3-day incubation. The series is classed as cell-based. As to the method:
as §1, §2

In a further series the test system is CCRFCEM (human T cells). Nature of the series: Antitumor effect on human tumor cells (MTT assay), CCRFCEM. The class given is cell-based. Particulars: CCRF-CEM, same manner as Test Example 1. As to the method: as §2, §3
Another series concerns OG56 (human lung cancer). The experiment in a line: Antitumor effect on human tumor cells (MTT assay), OG56. The class given is cell-based. The note with it: same manner as Test Example 1. As to the method:
as §2, §3

Another series concerns B16 cells (melanoma). Nature of the series: Antitumor effect on mouse tumor cells (MTT assay), B16. The series is classed as cell-based. The note with it: 72 h, 3-day incubation. As to the method:
as §1, §2

Series [6] in a line: Acute toxicity, intravenous administration to male BDF mice. The class given is in vivo, mouse. Particulars: 3 mice per group. The text has this:
The compounds of the present invention were intravenously administered to male BDF mice in order to examine the acute toxicity (each group having 3 mice).

Series [7] concerns NIH3T3 cells transformed with the activated c-Ha-ras gene. The experiment in a line: Acquisition of revertant cells from transformed NIH3T3 cells, microscopic observation. The class given is cell-based, mouse. The note with it: 40 μg/ml, 6 days. As to the method: (§4) NIH3T3 cells transformed with the activated c-Ha-ras gene and normal NIH3T3 cells were incubated for 6 days in the presence of 40 μg/ml of the compound obtained in Example 3 under the same conditions as in Example 6. The cells were microscopically observed in detail.

The next series concerns ras gene product p21. Nature of the series: Expression of ras gene product p21 in revertant cells (Western blotting). The note with it: revertants isolated in Example 7, FIG. 2. The series is classed as cell-based. As to the method:
2×10^6 portions of these cells were collected and each suspended in 1 ml of a buffer solution (100 mM NaCl, 20 mM Tris hydrochloride (pH 7.5), 5 mM MgCl2, 1% NonidetP-40 (polyoxyethylene(9)p-tert-octylphenol), 0.5% sodium deoxycholate, protease inhibitor) and then ground with a Potter homogenizer. After centrifuging at 3600 r.p.m. for 60 minutes, 10 μg portions of proteins were isolated from the supernatant by 12.5% polyacrylamide gel electrophoresis.
Then, the proteins in the gel were transferred into a nitrocellulose membrane and reacted with NCC-RAS-004, which was a monoclonal antibody for p21, at 4° C. for 24 hours to perform Western blotting. After reacting with rat Ig and ^125 I-Protein A, radioautography was performed.
(In general: In western blotting, separated proteins are transferred to a membrane and probed.)

Series [8] has as its system normal NIH3T3 cells. Nature of the series: Morphology of normal NIH3T3 cells, microscopic observation. The series is classed as cell-based, mouse. Particulars: 40 μg/ml, 6 days. As to the method:
as §4

Series [9] deals with normal NIH3T3 cells. Nature of the series: Growth of normal NIH3T3 cells. The class given is cell-based, mouse. Particulars: 40 μg/ml, 1st to 6th days, FIG. 1. As to the method: (§5) NIH3T3 cells transformed with the activated ras gene (Proc. Natl. Acad. Sci. USA, 81, 4771-4775 (1984)) and normal NIH3T3 cells were incubated in a Dulbecco-modified Eagle medium containing 5% bovine serum. The initial cell concentrations were adjusted to 1×10^4 cells/mi. The compound obtained in Example 3 was added to a concentration of 40 μg/ml and the cell numbers were counted with the lapse of time from the 1st to the 6th days.

Series [10] has as its system NIH3T3 cells transformed with the activated ras gene. The experiment in a line: Growth inhibition of NIH3T3 cells transformed with activated c-Ha-ras gene. Particulars: 40 μg/ml, 1st to 6th days, FIG. 1. The series is classed as cell-based, mouse. As to the method:
as §5

For series [11], the system named is revertant cells transplanted onto BALB/C nude mice. The experiment in a line: Carcinogenic ability of revertant cells on nude mouse. The class given is in vivo. Particulars: revertants of Example 7, 3×10^5 cells.
For series [12] the following is noted: Proceedings of 50th General Meeting of Japan Society of Cancer, 1991; cited from earlier work.
The test system of series [13] is normal NIH3T3 cells. Particulars: 500 μg/ml, JP-A-1-110627; cited from earlier work.
The test system of series [14] is NIH3T3 cells transformed with the activated ras gene. The note with it: JP-A-1-110627, cited from earlier work.

On to `O=C1C=CC[C@@H](C(=O)O)N1` [Compound of Ex. 1], for which the IC50 was found to be 200 µg/mL (≈ 1420 µM) in series [1]; 130 µg/mL (≈ 921 µM) in [2]; 90 µg/mL (≈ 638 µM) in series [3]; 100 µg/mL (≈ 709 µM) in series [4]; 100 µg/mL (≈ 709 µM) in series [5]; 90 µg/mL (≈ 638 µM) in the series on CCRFCEM (human T cells). Further, the values for the IC50 with OG56 (human lung cancer) and with B16 cells (melanoma) were 180 µg/mL (≈ 1280 µM) and 90 µg/mL (≈ 638 µM), respectively. In series [6], the “Survival dose (doses causing no death)” value is reported as 1000 mg/kg.

For the molecule `O=C(O)[C@@H]1CC=CC(=S)N1` [Compound of Ex. 3], the IC50 in series [1] worked out at 5 µg/mL (≈ 31.8 µM); in [2], 9 µg/mL (≈ 57.3 µM); in series [3], 20 µg/mL (≈ 127 µM); in series [4], 11 µg/mL (≈ 70 µM); in series [5], 11 µg/mL (≈ 70 µM); with CCRFCEM (human T cells), 20 µg/mL (≈ 127 µM). Further, the IC50 stood at 70 µg/mL (≈ 445 µM) in the series with OG56 (human lung cancer) and 45 µg/mL (≈ 286 µM) in the series with B16 cells (melanoma). For the same molecule, the “death of transformed NIH3T3 cells” value in [7] is “partially died”. Further, the “revertants among surviving transformed NIH3T3 cells (morphology)” value in series [7] is “revertants which were flat and had nuclei and nucleoli morphologically similar to the normal NIH3T3 cells”. In the series with ras gene product p21, the “expression of activated p21 in revertants” value is listed as “the activated p21 was expressed in the revertants”. Also, the “morphological change of normal NIH3T3 cells” value in the series on normal NIH3T3 cells [8] was “no morphological change”. For the same molecule, the “growth of normal NIH3T3 cells” value in the series with normal NIH3T3 cells [9] is “continued to grow”. Besides, the “growth inhibition of NIH3T3 cells transformed with the activated ras gene” value in series [10] is given as “inhibited the growth”. For the same molecule, the “tumor formation by revertants on nude mice” value in series [11] is recorded as “scarcely induced tumor formation”. Also, the “Survival dose (doses causing no death)” value in [6] is 800 mg/kg.

As to `N=C1C=CCC(C(=O)O)N1` (stereo not drawn) [Compound of Ex. 4], in series [6], the “Survival dose (doses causing no death)” value came to 600 mg/kg.

For the molecule `N=C1C=CC[C@@H](C(=O)O)N1` [SF2698], the IC50 in [1] was determined as 120 µg/mL (≈ 856 µM); in series [2], 65 µg/mL (≈ 464 µM); in series [3], 45 µg/mL (≈ 321 µM); in [4] it was 46 µg/mL (≈ 328 µM); in series [5] it was 51 µg/mL (≈ 364 µM); in the series with CCRFCEM (human T cells) it was 45 µg/mL (≈ 321 µM). For the same molecule, the IC50 was 80 µg/mL (≈ 571 µM) in the series on OG56 (human lung cancer) and 41 µg/mL (≈ 293 µM) in the series with B16 cells (melanoma). For the same molecule, the antitumor activity entry in series [12] is on record as “has an antitumor activity”. In addition, in series [6], the “Survival dose (doses causing no death)” value is on record as 300 mg/kg.

As to `N[C@@H](Cc1ccc(O)cn1)C(=O)O` [azatyrosine, L-β-(5-hydroxy-2-pyridyl)alanine], the “growth inhibition of normal NIH3T3 cells (azatyrosine)” value in the series with normal NIH3T3 cells [13] is on record as “never inhibited the growth”. For the same molecule, the “growth inhibition of NIH3T3 cells transformed with the activated ras gene (azatyrosine)” value in series [14] (500 μg/ml) is reported as “selectively inhibited the growth”. Further, the “nature of cells surviving after treatment with azatyrosine” value in series [14] is reported as “revertant cells”.
